From patent US20140018350A1, “COMBINATION OF SULFONAMIDE COMPOUND AND TAFLUPROST” (priority 2012, published 2014)

Assay: Intraocular pressure lowering effect in monkeys with normal intraocular pressure after instillation
Format: in vivo, Cynomolgus monkey
Settings: male cynomolgus monkeys with normal intraocular pressure, six per group, 20 μL instillation into one eye, 0.0006 w/v % present compound solution and/or Taflotan 0.0015%
Source text: In order to study the usefulness of a combination of the present compound with tafluprost, an intraocular pressure lowering effect when the present compound and tafluprost were concomitantly administered to experimental animals (monkeys with normal intraocular pressure) was examined.
An intraocular pressure lowering effect when the present compound and tafluprost were concomitantly administered was examined. As comparison subjects, intraocular pressure lowering effects when the present compound or tafluprost was administered singly were also examined. As a control, the base and physiological saline were administered.
Present compound solution: a 0.0006 w/v % present compound solution (instillation amount: 20 μL) […]
(2) Intraocular pressure was measured immediately before administering the test compound solution, and the measured intraocular pressure was defined as initial intraocular pressure. […]
(4) At 2, 4, 6 and 8 hours after instilling the present compound solution, one drop of the 0.4% oxybuprocaine hydrochloride eye drop was instilled into the eyes for which intraocular pressure was to be measured to effect local anesthesia, and then, intraocular pressure was measured. The intraocular pressure was measured in triplicate for each eye to obtain an average of three measurements, which is shown as the result. […]

Row | SMILES | Intraocular pressure lowering degree (change relative to average of control group) at 6 hours after instillation
1 | CC(C)OC(=O)CNc1cccc(CN(Cc2ccc(-n3cccn3)cc2)S(=O)(=O)c2cccnc2)n1 [Present compound, isopropyl(6-{[4-(pyrazol-1-yl)benzyl](pyridin-3-ylsulfonyl)aminomethyl}pyridin-2-ylamino)acetate] | 2.6 mmHg
2 | CC(C)OC(=O)CCC/C=C\C[C@@H]1[C@@H](/C=C/C(F)(F)COc2ccccc2)[C@H](O)C[C@@H]1O [tafluprost, 1-methylethyl (5Z)-7-{(1R,2R,3R,5S)-2-[(1E)-3,3-difluoro-4-phenoxy-1-butenyl]-3,5-dihydroxycyclopentyl}-5-heptenoate] | 1.9 mmHg
